# Key:
# E. coli C41(DE3) = test: pINF replication in E. coli C41(DE3)-pACS: growth (OD600) and relative plasmid copy number; settings: 0.25 mM triphosphates; absence of pINF
# Description: A single clone of freshly transformed E. coli C41(DE3)-pACS was grown overnight in 2×YT medium (3 ml) supplemented with streptomycin (50 μg/ml) and KPi (50 mM). After 100-fold dilution into the same medium (300 ml) and outgrowth at 37° C. to an OD600 of 0.20, IPTG was added to a final concentration of 1 mM to induce the expression of PtNTT2. After 40 min, the cultures were rapidly cooled to 0° C., washed with sterile water (3×150 ml), and resuspended in 10% glycerol (1.5 ml).
# An aliquot of electrocompetent C41(DE3)-pACS cells (50 μL) was mixed with pINF (2 μL, 400 ng), and electroporated in a 0.2 cm gap cuvette. […]
# The cells were resuspended in fresh 2×YT medium (1.5 ml, 50 μg/ml streptomycin, 100 μg/ml ampicillin, 1 mM IPTG, 50 mM KPi, 0.25 mM dNaMTP, 0.25 mM d5SICSTP) and grown at 37° C. with shaking (250 rpm). At defined time points, OD600 was determined and aliquots (100 μl) were removed and centrifuged (8000 rfu for 5 min, 4° C.). Spent media was analyzed for nucleotide composition by HPLC and pINF was recovered by spin column purification (Zymo Research Corp.). […]
# After recovery, the cells were centrifuged (4000 rfu for 5 min, 4° C.), spent media (0.15 ml) was removed and analyzed for nucleotide composition by HPLC. […]
# actively growing E. coli = settings: for degradation of triphosphate in the presence of actively growing E. coli: preliminary characterization, HPLC and MALDI
# Description: dNaMTP or d5SICSTP (10 mM each) were added to media to a final concentration of 0.25 mM. Cells were incubated with the substrate with shaking at 37° C. for 30 min and then pelleted (8,000 rfu for 5 min, 4° C.). An aliquot of the media fraction (40 μl) was mixed with acetonitrile (80 μl) to precipitate proteins, and then incubated at RT for 30 min. Samples were either analyzed immediately by HPLC or stored at −80° C. until analysis. Analysis began with centrifugation (12,000 rfu for 10 min, RT), then the pellet was discarded, and the supernatant was reduced to ˜20 μl, resuspended in 95% 0.1 M TEAB, pH 7.5; 5% acetonitrile, to a final volume of 50 μl, and analyzed by HPLC.
# Samples were applied to a LC column (3 μm C18 300 Å, 250×4.6 mm) and subjected to a linear gradient of 0-40% with 20% 0.1 M TEAB, pH 7.5; 80% acetonitrile over 40 min at a flow rate of 1 ml/min.
# Injection series included two extra control samples containing 5 nmol of dNaMTP or d5SICSTP. […] After peak integration, the ratio of the unknown peak to the control peak adjusted for the loss from the extraction step (62% and 70% loss for dNaM and d5SICS, respectively), provided a measure of the amount of each of the moieties in a sample. To determine the relative concentrations of unnatural nucleotide inside a cell, the amount of imported unnatural nucleotide was then divided by the volume of cells, which was calculated from the volume of a single E. coli cell of (1 μm^3) multiplied by the number of cells in each culture (OD600 of 1.0 equal to 1×10^9 cells per ml). An RpNTT2 sample was used as a negative control and its signal was subtracted to account for any incomplete washing of nucleotide species from the media.
# PtNTT2 [1] = test: Uptake of d5SICSTP or dNaMTP into E. coli C41(DE3) expressing PtNTT2, media and cytoplasmic fractions by HPLC; assay type: cell-based, Escherichia coli C41(DE3) expressing PtNTT2
# Description: (§1) E. coli C41(DE3) freshly transformed with pCDF-1b-PtNTT2 was grown in 2×YT with streptomycin overnight, then diluted (1:100) into fresh 2×YT medium (1 ml of culture per uptake with [α-^32P]-dATP; 2 ml of culture per uptake with d5SICSTP or dNaMTP) supplemented with 50 mM potassium phosphate (KPi) and streptomycin. […] Cells were grown to an OD600 of ˜0.6 and expression was induced by the addition of IPTG (1 mM). The culture was allowed to grow for another hour (final OD600 ˜1.2) and then assayed directly for uptake as described below using a method adapted from Haferkamp, et al.
# To analyze the intracellular dephosphorylation of unnatural nucleoside triphosphates, cell pellets were subjected to 3×100 μl washes of ice cold KPi (50 mM). Pellets were then resuspended in 250 μl of ice cold KPi (50 mM) and lysed with 250 μl of Lysis buffer L7 of the PureLink Quick Plasmid DNA Miniprep Kit (200 mM NaOH, 1% w/v SDS), after which the resulting solution was incubated at RT for 5 min. Precipitation buffer N4 (350 μl, 3.1 M potassium acetate, pH 5.5) was added, and the sample was mixed to homogeneity.
# [2] = Nucleotide extraction from cells for HPLC analysis: recovery and triphosphate decomposition; set-up: species or system E. coli; settings: ratio of 3P composition before and after extraction
# Description: To minimize the effect of the lysis and triphosphate extraction protocols on the decomposition of nucleoside triphosphate within the cell, the following extraction procedure was discovered that led to an unexpectedly highest recovery with and low extent of decomposition (Table 9). Cells were grown, washed, and then 5 nmol of either dNaMTP or d5SICSTP was added to the pellets, which were then subjected to various types of extractions including boiling water, hot ethanol, cold methanol, freeze and thaw, lysozyme, glass beads, NaOH, trichloroacetic acid (TCA) with Freon, and perchloric acid (PCA) with KOH. The recovery and composition of the control was quantified by HPLC. […] Pellets were resuspended in ice cold KPi (50 mM, 250 μl) before addition of NaOH to decrease dephosphorylation after cell lysis (Method 4).
# Polymerase = settings: 10, 5, 2 or 1 μM, 30° C., 20 nM DNA
# Description: Polymerase (15 μg/ml) is incubated at 30° C. in buffer (50 mM TRIS pH 7.5, 0.05% Tween 20, 6 mM MgSO4, 1 mM EDTA, 50 mM NaCl) with 20 nM DNA. […] Tubes are incubated at 30° C. and aliquots are taken at 0.33, 0.66, 1, 2, 5, and 15 mins from the 4 reaction tubes for quenching and 15% urea acrylamide gel analysis. 1 mM dNTPs are added to the remaining reaction tubes and after a further 10 mins an aliquot is taken for gel analysis (chase).
# TpNTT2 = test: [α-32P]-dATP uptake into E. coli C41(DE3) expressing NTT, TLC/phosphorimaging; assay type: cell-based, Thalassiosira pseudonana
# Description: as §1
# (§2) To analyze the intracellular dephosphorylation of dATP, after induction of an NTT, an uptake reaction was initiated by the addition of dATP (spiked with [α-^32P]-dATP) to a final concentration of 0.25 mM, followed by incubation at 37° C. with shaking for 30 min. A culture was then centrifuged (8,000 rfu for 5 min, RT). Supernatant was analyzed by thin layer chromatography (TLC), while cell pellets were washed 3 times with ice cold KPi (50 mM, 100 μL) to remove excess radioactive substrate, lysed with NaOH (0.2 M, 100 μl) and centrifuged (10,000 rfu for 5 min RT) to pellet the cell debris, before the supernatant (1.5 μl) was analyzed by TLC. […]
# PamNTT5 = test: as above; assay type: cell-based, Protochlamydia amoebophila
# Description: as §1, §2
# PamNTT2 = test: as above; assay type: cell-based, Protochlamydia amoebophila
# Description: as §1, §2
# PtNTT2 [3] = test: as above; assay type: cell-based, Phaeodactylum tricornutum; settings: for dATP transport into cells by NTT: PtNTT2
# Description: as §1
# To analyze the intracellular dephosphorylation of dATP, after induction of an NTT, an uptake reaction was initiated by the addition of dATP (spiked with [α-^32P]-dATP) to a final concentration of 0.25 mM, followed by incubation at 37° C. with shaking for 30 min. A culture was then centrifuged (8,000 rfu for 5 min, RT). Supernatant was analyzed by thin layer chromatography (TLC), while cell pellets were washed 3 times with ice cold KPi (50 mM, 100 μL) to remove excess radioactive substrate, lysed with NaOH (0.2 M, 100 μl) and centrifuged (10,000 rfu for 5 min RT) to pellet the cell debris, before the supernatant (1.5 μl) was analyzed by TLC.
# Samples (1 μl) were applied on a 0.5 mm polyethyleneimine cellulose TLC plate and eluted first by sodium formate (0.5 M, pH 3.0) for 30 sec, then by sodium formate (2.5 M, pH 3.0) for 2.5 m, and finally by sodium formate (4.0 M, pH 3.0) for 40 m. Plates were dried using a heat gun and quantified by phosphorimaging and imaging software.
# The experiments described herein illustrate the plasmid-based expression of eight different NTTs in E. coli C41(DE3) (Table 9A). The uptake of [α-^32P]-dATP was examined as a surrogate for the unnatural triphosphates (FIG. 5).
smiles,measurement,setting,value
Cc1ccc2c(=S)n([C@H]3C[C@H](O)[C@@H](COP(=O)(O)OP(=O)(O)OP(=O)(O)O)O3)ccc2c1 [d5SICSTP],effect of added triphosphates on E. coli growth / toxicity,E. coli C41(DE3),only a slight decrease in growth
same,degradation of triphosphate in the presence of actively growing E. coli,actively growing E. coli,degraded
same,import into E. coli by PtNTT2,PtNTT2 [1],efficiently imported
COc1cc2ccccc2cc1[C@H]1C[C@H](O)[C@@H](CO)O1 [dNaM],"Triphosphate stability, %",[2]; Method 1 TCA with Freon,92%
same,"Triphosphate stability, %",[2]; Method 2 PCA w/KOH,98%
same,"Triphosphate stability, %",[2]; Method 3 NaOH w/KOAc,86%
same,"Triphosphate stability, %",[2]; Method 4 NaOH w/KOAc supplemented w/ KPi (50 mM),99%
"O=P(O)(O)O [KPi, potassium phosphate, reference compound]",inhibition of dephosphorylation of unnatural triphosphates,actively growing E. coli; growing bacterial culture,significantly inhibited
COc1cc2ccccc2cc1[C@H]1C[C@H](O)[C@@H](CO)O1 [(d)NaM],addition to DNA primer by polymerase (gel band shift),Polymerase,extension by one base
Nc1ncnc2c1ncn2[C@H]1C[C@H](O)[C@@H](COP(=O)(O)OP(=O)(O)OP(=O)(O)O)O1 [dATP],dATP transport into cells by NTT,TpNTT2,efficiently transported
same,dATP uptake by NTT,PamNTT5,measurable uptake
same,dATP uptake by NTT,PamNTT2,measurable uptake
same,extracellular stability in the presence of potassium phosphate (KPi),actively growing E. coli; KPi in growth medium,significantly increased
same,[α-32P]-dATP uptake as a function of transporter induction,"PtNTT2 [3]; 1 mM IPTG induction, media containing 50 mM KPi",maximal
same,dATP transport into cells by NTT,PtNTT2 [3],efficiently transported
same,dATP transport into cells by NTT,PtNTT2 [3]; listed as [α-^32P]-dATP,significantly more active
Cc1ccc2c(=S)n([C@H]3C[C@H](O)[C@@H](CO)O3)ccc2c1 [(d)5SICS],addition to DNA primer by polymerase (gel band shift),Polymerase,extension by one base
COc1cc2ccccc2cc1[C@H]1C[C@H](O)[C@@H](COP(=O)(O)OP(=O)(O)OP(=O)(O)O)O1 [dNaMTP],effect of added triphosphates on E. coli growth / toxicity,E. coli C41(DE3),only a slight decrease in growth
same,degradation of triphosphate in the presence of actively growing E. coli,actively growing E. coli,degraded
same,import into E. coli by PtNTT2,PtNTT2 [1],efficiently imported

# Reference: patent US12655436B2, “Import of unnatural or modified nucleoside triphosphates into cells via nucleic acid triphosphate transporters” (The Scripps Research Institute, priority 2014, dated 2026)
